Type in all cases: cell-based
For one experiment, the system named is RSV Long. The experiment in a line: RSV plaque reduction assay, RSV Long. The following applies: human respiratory syncytial virus, HEP-2 cells, 6 days, read-out: EC50 RSV Long MOI 0.0001. As for the experimental part:
(§1) An RSV plaque reduction assay was performed according to the following protocol. On Day 1, HEP-2 cells were seeded in 24-well plates at 5×10E5 cells/well/500 ul. On Day 2, once the cells are at 100% confluency, the cells were infected at a viral dilution of approximately 30 plaques per well in DMEM+2% FBS infection buffer and treated with compound. The medium was aspirated and cells were infected with 90 ul of viral dilution per well. Then, cells were treated with 10 ul of 10× compound resulting in a final concentration of between 1 nM-10 uM of the compound. The cells were incubated for 2 h at room temperature, rocking every 15 minutes. After 2 h, the inoculum/compound mixture is removed. 450 ul of overlay media (1 part Avicel 2.5%; 1 part DMEM+2% FBS) was added to the well and the cells were treated with 50 ul of 10× compound resulting in a final concentration of 1 nM-10 uM of the compound. The cells were incubated for 6 days at 37 deg C.
(§2) For staining and quantification: The infected cell plates were fixed with 100% methanol for 10 to 30 minutes. The plates were washed three times with 5% milk/PBS, 1 mL/well. A primary antibody, goat anti-RSV polyclonal antibody (Chemicon Cat #AB1128), diluted in 5% milk/PBS at 1:1000 was put onto each well. […] The plates were rinsed 3 times with deionized water, air-dried and the number of plaques was counted.

For another experiment, the system named is RSV Long strain. In words: RSV microneutralization assay, RSV Long strain. Particulars: human respiratory syncytial virus; MOI 0.002, HEp-2 cells, day 6; read-out: RSV Long EC50. As for the experimental part: (§3) Duplicate 10-fold serial dilutions of compound in DMEM with 2% HI-FBS, 1× P/S, 2 mM L-Gln were prepared in 96-well tissue culture plates at 60 μL/well. The RSV Long strain (RetroVirox, San Diego), RSV A2 strain (Virapur, San Diego), RSV B1 strain (RetroVirox, San Diego), or RSV strain CH18537 (RetroVirox, San Diego), were diluted in DMEM with 2% HI-FBS, 1× P/S, 2 mM L-Gln and 60 μL/well added to 60 μL compound for a multiplicity of infection (MOI) of 0.002 (Long, A2), 0.003 (B1), or 0.004 (CH18537). Virus only (no drug) and cells only (no virus, no drug) controls were included on each plate. The compound-virus mix was incubated for 1 h at 37° C. and 5% CO2. After 1 h, medium was removed from HEp-2 cells by aspiration and wells washed once with 100 μL/well 1×PBS pH 7.4 (Fisher cat #MT21040CM). The compound-virus mix (100 μL/well) was added to the cells and incubated for 1 h at 37° C. and 5% CO2 prior to addition of 100 μL/well of DMEM with 2% HI-FBS, 1× P/S, 2 mM L-Gln (200 μL final vol) and incubation at 37° C. and 5% CO2. On day 6 post infection, supernatant was aspirated and cells fixed with 100 μL/well ice-cold 80% acetone in 1×PBS for 20 min at 4° C. The acetone was aspirated and plates air-dried for 20 min at room temperature. The plates were washed 3× with 200 μL/well 1×PBS, 0.05% Tween-20 (PBST) and blocked with 200 μL/well 5% non-fat dry milk (Fisher cat #50-195-952) in PBST for 1 h with shaking (500 rpm) on an orbital plate shaker. The blocking solution was discarded and cells incubated with 100 μL/well mouse anti-F protein antibody (MilliporeSigma cat #MAB8599) diluted 1:2,000 in diluent (blocking solution diluted 1:1 in 1×PBS pH 7.4) for 2 h with shaking. Plates were washed 5× with 300 μL/well PBST and incubated with 100 μL/well HRP-conjugated goat anti-mouse IgG antibody (SouthernBiotech cat #1030-05) diluted 1:1,000 in diluent for 1 h with shaking. Plates were washed 5× with 300 μL/well PBST and incubated with 100 μL/well TMB substrate (Fisher cat #BDB555214) for ˜5 min. The reaction was stopped with 100 μL/well 1N H2SO4. Absorbance was read at 450 nm with an EnSpire multimode plate reader (PerkinElmer). The mean A450 for the cells only control was subtracted from all A450 values, and the percent virus neutralisation calculated for each compound concentration, relative to the virus only control.

Another experiment deals with RSV B1. The experiment in a line: RSV plaque reduction assay, RSV B1. The following applies: human respiratory syncytial virus, HEP-2 cells, 6 days, read-out: EC50 RSV B1 MOI 0.0001. As for the experimental part:
as §1, §2

A further experiment has as its system RSV A2 strain. In words: RSV microneutralization assay, RSV A2 strain. The following applies: human respiratory syncytial virus; MOI 0.002, HEp-2 cells, day 6. As for the experimental part:
as §3, with “HEp-2 cells (ATCC #CCL-23) were seeded at 5E4/well/200 μL in DMEM (Fisher cat #11965118) supplemented with 10% heat-inactivated (HI) fetal bovine serum (HI-FBS; Fisher cat #10-082-147), 1× penicillin-streptomycin (P/S, 100 μg/mL; Fisher cat #MT30002C), and 1× L-glutamine (L-Gln, 2 mM; Fisher cat #25030-164) in 96-well tissue culture treated plates (Fisher cat #08-772-17) and incubated overnight at 37° C. and 5% CO2. Duplicate” for “Duplicate”

In a further experiment the test system is RSV strain CH18537. In words: RSV microneutralization assay, RSV strain CH18537. The following applies: human respiratory syncytial virus; MOI 0.004, HEp-2 cells, day 6. The procedure:
(§4) HEp-2 cells (ATCC #CCL-23) were seeded at 5E4/well/200 μL in DMEM (Fisher cat #11965118) supplemented with 10% heat-inactivated (HI) fetal bovine serum (HI-FBS; Fisher cat #10-082-147), 1× penicillin-streptomycin (P/S, 100 μg/mL; Fisher cat #MT30002C), and 1× L-glutamine (L-Gln, 2 mM; Fisher cat #25030-164) in 96-well tissue culture treated plates (Fisher cat #08-772-17) and incubated overnight at 37° C. and 5% CO2. Duplicate 10-fold serial dilutions of compound in DMEM with 2% HI-FBS, 1× P/S, 2 mM L-Gln were prepared in 96-well tissue culture plates at 60 μL/well. The RSV Long strain (RetroVirox, San Diego), RSV A2 strain (Virapur, San Diego), RSV B1 strain (RetroVirox, San Diego), or RSV strain CH18537 (RetroVirox, San Diego), were diluted in DMEM with 2% HI-FBS, 1× P/S, 2 mM L-Gln and 60 μL/well added to 60 μL compound for a multiplicity of infection (MOI) of 0.002 (Long, A2), 0.003 (B1), or 0.004 (CH18537). Virus only (no drug) and cells only (no virus, no drug) controls were included on each plate. The compound-virus mix was incubated for 1 h at 37° C. and 5% CO2. […] Absorbance was read at 450 nm with an EnSpire multimode plate reader (PerkinElmer). The mean A450 for the cells only control was subtracted from all A450 values, and the percent virus neutralisation calculated for each compound concentration, relative to the virus only control.

Another experiment has as its system RSV B1 strain. The experiment in a line: RSV microneutralization assay, RSV B1 strain. The following applies: human respiratory syncytial virus; MOI 0.003, HEp-2 cells, day 6. As for the experimental part: as §4
The subject of experiment [1] is RSV (Respiratory Syncytial Virus strain A2). In words: RSV cytopathic effects (CPE) assay. Particulars: human respiratory syncytial virus, 96 h; RSV A2, MOI 0.01, HEp-2 cells, day 4, crystal violet; average of duplicate wells; read-out: EC50. The procedure: The activity of anti-RSV compounds and conjugates was determined using an in vitro cell-based assay following a standard protocol in the field. Briefly, ten four-fold serial dilutions of each test article (TA) starting at 10 μM were prepared in duplicate and incubated with RSV (Respiratory Syncytial Virus strain A2) at a multiplicity of infection (MOI) of 0.01, for one hour. The RSV-TA mix was then added to HEp-2 cells seeded in 96-well plates and incubated for one hour.

Two compounds from patent US20230082611A1, “COMPOSITIONS AND METHODS FOR THE TREATMENT OF RESPIRATORY SYNCYTIAL VIRUS” (Cidara Therapeutics, Inc., priority 2019, published 2023) can be followed below.

Each structure is given as a SMILES string.

Turning to `C#CCOCCOCCOCCOCCOCCCCn1c(CN2C(=O)C3(CCN(C(=O)OC(C)(C)C)CC3)c3ccncc32)nc2cc(Cl)ccc21` [Int-42], the EC50 was 17000 pM in the experiment on RSV Long, 220 pM in the experiment with RSV Long strain, 13000 pM in the experiment on RSV B1 and 880 pM in the experiment on RSV A2 strain.

In the case of `Cc1cn2nc([C@@H]3CCCCN3C(=O)c3cc(Cl)ccc3NS(C)(=O)=O)cc2nc1N1CC[C@H](N)C1` [Presatovir, reference compound], the EC50 worked out at 320 pM with RSV strain CH18537; 820 pM with RSV B1 strain; 8.4 pM with RSV Long strain; 14 pM in the experiment on RSV A2 strain; 76.9 pM in experiment [1].
